The supplement of paper PMC11997997

Assays:
[1] = system: murine bone marrow-derived macrophages; experiment: area under cytotoxicity dose-response curve (AUC (% cytotoxicity x dose, relative)); higher = more cytotoxic; settings: duration: 6 days; dose range: 0.13-80 uM, 8 points
How it was run: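 Cytotoxicity is expressed as the area under the dose–response curve from GraphPad Prism version 10. To obtain it, primary murine bone marrow-derived macrophages were incubated for 6 days at 37 °C in 5% CO2 across final concentrations of 80–0.13 μM. Viability came from CellTiter-Glo luminescence, and percent cytotoxicity was normalised to vehicle and positive control wells.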

[2] = system: Mycobacterium tuberculosis CDC1551 (intracellular, in murine BMDM); experiment: area under intracellular growth-inhibition dose-response curve (AUC (% inhibition x dose, relative)); higher = more potent; settings: duration: 6 days; dose range: 0.13-80 uM, 8 points
How it was run: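 In 384-well opaque plates, primary murine bone marrow-derived macrophages were infected with luciferase-expressing M. tuberculosis CDC1551 (multiplicity of infection 1, 1 h) 24 h after seeding, then treated for 6 days across final concentrations of 80–0.13 μM. Growth was measured by Bright-Glo luciferin assay, normalised to a reference drug control and the lowest-concentration wells. The reported value is the area under the growth-inhibition dose–response curve from GraphPad Prism.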

| SMILES | area under cytotoxicity dose-response curve [1] | area under intracellular growth-inhibition dose-response curve [2] |
| --- | --- | --- |
| CCOC(=O)/C=C/C(=O)NNC(=O)c1ccccc1Cl | 186 | 49.3 |
| COCCNc1c(-c2ccc(OC)cc2)nc2ccc(Cl)cn12 | 32.9 | 87.8 |
| CCOc1ccc(-c2c(C)[n+](-c3ccc(OCC)cc3)c3n2CCCCC3)cc1.[O-][Cl+3]([O-])([O-])[O-] | 8.93 | 57.1 |
| O=[N+]([O-])c1nn(-c2ccc(Cl)cc2)[n+]([O-])c1NCc1ccncc1 | 11.5 | 30.7 |
| COc1cc(OC)c2c(OC)cccc2n1 | 101 | 92.3 |
| CC(NC(=O)c1cccc(Cl)c1)C1CC2CCC1C2 (centres undefined) | 48.5 | 225 |
| COc1ccccc1OCC(=O)N/N=C/C=C/c1ccc([N+](=O)[O-])o1 | < 0 | 73.2 |
| O=C(CCCOc1ccc(Br)cc1)NNC(=O)c1ccncc1 | 24.1 | 256 |
| O=C(NCCC1=CCCCC1)NC12CC3CC(CC(C3)C1)C2 | 60.3 | 196 |
| CCC(=O)NC(=S)Nc1ccc(NC(=O)c2ccc(Br)o2)cc1 | 58.2 | 211 |
| Cc1cc(Cl)ccc1NC(=S)NCC(O)c1ccccc1 (centres undefined) | 76.6 | 126 |
| O=C(/C=C/c1ccco1)c1ccc(NC(=O)C23CC4CC(CC(C4)C2)C3)cc1 | < 0 | 260 |
| O=C(CSc1cccc[n+]1[O-])Nc1ccccc1Oc1ccccc1 | 53.2 | 39.4 |
| O=C(NCCN1CCOCC1)c1cc([N+](=O)[O-])cc([N+](=O)[O-])c1 | 8.42 | 168 |
| C/C(Cn1nnc([N+](=O)[O-])n1)=N\NC(=O)c1ccncc1 | < 0 | 271 |
| C/C(Cn1cnc([N+](=O)[O-])n1)=N/NC(=O)COc1c(Cl)cc(Cl)cc1Cl | < 0 | 196 |
| S=C(Nc1ccccc1)Nc1ccc(OCc2ccccc2)cc1 | < 0 | 272 |
| COC(=O)Cc1ccc(NC(=S)Nc2ccc(N3CCOCC3)cc2)cc1 | 50.5 | 241 |
| Cc1sc(N/N=C/C=C/c2ccccc2)nc1-c1ccccc1 | 16.1 | 268 |
| O=C(NCC1CC1)c1cc([N+](=O)[O-])cc([N+](=O)[O-])c1 | 36.7 | 202 |
| Cc1occc1C(=O)N/N=C/C=C/c1ccccc1 | 60 | 87.6 |

| SMILES | area under cytotoxicity dose-response curve [1] | area under intracellular growth-inhibition dose-response curve [2] |
| --- | --- | --- |
| CCOc1ccc(CCNC(=O)c2ccc3c(=O)[nH]c4c(C(=O)NC(C)C)sc(=S)n4c3c2)cc1 | 10.1 | 225 |
| Cc1ccc(C(=O)NC2CCCCC2)cc1 | 43.3 | 228 |
| CCC(=O)N(C)CCc1cc2c(c(OC)c1/C=N/NC(=O)c1ccncc1)OCO2 | 48.4 | 127 |
| CC1CCC(C(C)C)C(OC(=O)Cn2c(-c3ccccc3)[n+](C)c3ccccc32)C1.[Cl-] (centres undefined) | 12.5 | 124 |
| O=C(NN=C1CCCCCCCCCCC1)c1ccncc1 | 73.9 | 262 |
| COc1ccc(CN(C)C(=O)c2cccc(S(=O)(=O)N3CCCc4ccccc43)c2)c(OC)c1OC | 16.4 | 144 |
| Cc1ccc(C(=O)N2CCC(C)CC2)cc1C | 24.4 | 113 |
| Cc1cc(C)c2c(n1)sc1c(N3CCCCC3)ncnc12 | 73.3 | 142 |
| C[C@@H]1C2CC(C/C2=N\NC(=O)c2ccncc2)C1(C)C (some centres undefined) | < 0 | 260 |
| CC(C)(C)C(=O)/C=C/Nc1ccccc1O | 5.21 | 88 |
| CCCCC(=O)NCc1ccc(F)cc1 | < 0 | 199 |
| O=C(N/N=C\c1ccc([N+](=O)[O-])o1)C1COc2ccccc2O1 (centres undefined) | 10.7 | 203 |
| Cc1cc(=O)c2cc(Br)ccc2n1CC(=O)NCc1ccccc1 | 41.6 | 233 |
| CC(C)(C)c1csc(N/N=C/c2ccc(O)cc2)n1 | 19.1 | 235 |
| Cc1cc(NS(=O)(=O)c2ccc(N)cc2)no1 | 28.4 | 57.8 |
| Cl.c1ccc(-c2nc(NCCCn3ccnc3)c3oc4ccccc4c3n2)cc1 | 34.7 | 172 |
| CC(C)c1ccc(CNc2nc3nc4c(c(O)n3n2)CCC4)cc1 | < 0 | 163 |
| COCCCNCC(=O)Nc1sc(C)c(C)c1C(=O)OC.O=C(O)C(=O)O | 48.9 | 76.8 |
| O=C(c1ccc2ccccc2c1)N1CCCC1 | 32.9 | 222 |
| O=C(N/N=C/c1ccccc1Cl)c1ccncc1 | 69.2 | 234 |
| Nc1c2c(nc3sc4c(c13)CCCCC4)CCCC2 | 14.6 | 171 |
